Broadly, the IC50 is the concentration that gives 50% inhibition. A low value points to higher potency.

The values below come from patent US10544178B2, “Metal complex compound and preparing method and usage thereof” (National Changhua University of Education, priority 2018, dated 2020).

Some results are limits rather than exact numbers.

In data set [1] the test system is PC-3 prostatic cancer cell.
Description: (§1) Pharmacology Research: cytotoxicity research upon PC-3 prostatic cancer and DU145 breast cancer
(§2) Human cell HRMPC performing cell activity of PC-3 prostatic cancer and DU145 breast cancer is placed into PRMI1640 culture medium to be cultured under a temperature of 37° C. in a 5% CO2/95% air. The PRMI1640 culture medium contains 10% FBS and penicillin (100 U/ml)/streptomycin (100 U/ml).
(§3) Subsequently, the cell survivability is quantified through colorimetry (Sulforhodamine B Assay).

Description for DU145 breast cancer cell: as §1, §2, §3

On to “para-methylisopropylphenylchloride-1-(para-diethylaminophenyl)-3-[(1-methyl-3-indazolyl)imino]-1-oxypropylruthenium [Embodiment 6]”, for which the IC50 (in data set [1]; with DU145 breast cancer cell) was more than 30 µM each time.
For “para-methylisopropylphenylchloride-1-carbonyl-3-[(2,6-diisopropyl)n-phenyl]-1-phenyl-2-butyleneruthenium [Embodiment 3]”, the IC50 in data set [1] worked out at 2.39 ± 0.13 µM; with DU145 breast cancer cell, 5.37 ± 0.06 µM.
In the case of “para-methylisopropylphenylchloride-1-carbonyl-3-[(2-methoxyl) n-phenyl]-1-phenyl-2-butyleneruthenium [Embodiment 2]”, the IC50 in data set [1] stood at 5.68 ± 0.12 µM; in the data set on DU145 breast cancer cell, 14.3 ± 0.28 µM.
As to “para-methylisopropylphenylchloride-1-carbonyl-3-n-phenyl-1-phenyl-2-butyleneruthenium [Embodiment 1]”, the values for the IC50 (in data set [1]; in the data set on DU145 breast cancer cell) were 5.66 ± 0.2 µM and 9.31 ± 1.48 µM, respectively.
“para-methylisopropylphenylchloride-2-(2-indazolyl)1-phenyl-1-oxyethylruthenium [Embodiment 7]” yielded a 50% inhibitory concentration (IC50) with DU145 breast cancer cell of more than 30 µM.
For “para-methylisopropylphenylchloride-2-[1-(2-naphthyl)azomethine]phenoxyruthenium [Embodiment 5]”, the IC50 in data set [1] is 4.58 ± 0.32 µM; in the data set with DU145 breast cancer cell it was 14.2 ± 0.35 µM.
With “para-methylisopropylphenylchloride-2-[1-para-tolueneimino]phenoxyruthenium [Embodiment 4]”, the IC50 in data set [1] worked out at 3.01 ± 1.17 µM; with DU145 breast cancer cell, 13.1 ± 0.95 µM.
